“And” between values parts separate entries of the source, which are not always exact repeats. Equal values may be shown once. Where no end group is shown, it is not given here.
Tests used:
Type in all cases: cell-based
PTHR1 [1] = target: T1, PTHR1 (Homo sapiens, UniProt Q03431); experiment: β-arrestin2 recruitment BRET assay in transfected HEK293T cells; parameters: Flag (N); Life Technologies Corporation, CA (arrestin cDNA); host or cells: HEK293T (CRL-3216, ATCC); details: for −log10Slope: fitted curve slope; for −log10Slope / EC50: replicate plates; for β-arrestin2 assay activity compared to control peptide: FIG. 2, PTH 1-34 positive control; for β2-arrestin: relative to PTH [1-34], HEK293T cells, BRET
T1 sequence (Q03431 27-593): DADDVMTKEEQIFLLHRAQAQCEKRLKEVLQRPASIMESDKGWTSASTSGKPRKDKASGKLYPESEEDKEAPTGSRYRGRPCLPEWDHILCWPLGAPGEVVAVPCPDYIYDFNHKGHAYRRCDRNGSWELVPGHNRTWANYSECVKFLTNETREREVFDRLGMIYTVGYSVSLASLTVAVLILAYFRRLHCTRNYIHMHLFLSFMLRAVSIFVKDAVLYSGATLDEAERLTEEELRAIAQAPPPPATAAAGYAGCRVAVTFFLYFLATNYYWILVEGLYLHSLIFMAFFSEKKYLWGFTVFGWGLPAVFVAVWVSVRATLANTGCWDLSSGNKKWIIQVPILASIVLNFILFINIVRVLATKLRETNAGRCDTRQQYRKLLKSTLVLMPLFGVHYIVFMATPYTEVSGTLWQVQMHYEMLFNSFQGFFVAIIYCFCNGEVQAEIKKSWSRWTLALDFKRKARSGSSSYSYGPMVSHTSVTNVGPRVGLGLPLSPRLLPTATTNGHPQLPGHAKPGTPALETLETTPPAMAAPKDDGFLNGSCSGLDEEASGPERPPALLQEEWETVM
Protocol: (§1) 18-24 hours post transfection, the Luciferase substrate Coelenterazine (NanoLight Technologies, AZ) was added to cells, a baseline BRET measurement was taken after 5 minutes incubation, and then serial dilutions of peptides, diluted in PBS (with 0.5 mM MgCl2+0.1% BSA FAF), were added to cells, and BRET signal was measured every 2 minutes for 30 minutes on Hybrid Multi-Mode Reader (Synergy Neo2, BioTek, VT). Seventy-five peptides were tested in the β-arrestin recruitment assay.

PTHR1 [2] = target: T1, PTHR1; experiment: cAMP accumulation assay (HTRF) in CHO-K1/Ga15/PTHR1 cells; parameters: host or cells: CHO-K1 (recombinant line CHO-K1/Ga15/PTHR1); details: for Emax: CHO-K1, cAMP assay, fitted dose-response maximum; for cAMP accumulation activity compared to control peptide: FIG. 3, PTH 1-34 positive control; for cAMP: relative to PTH [1-34], CHO-K1/Ga15/PTHR1 cells
Protocol: Cell suspension (5 μL) was seeded in 384-well plates at a density of 3,000 cells/well. Cells were treated with test samples (5 μL) or agonist (PTH 1-34) for 30 minutes at room temperature. cAMP-d2 working solution (5 μL) and anti-cAMP-Cryptate working solution (5 μL) were added to cells and incubated for 60 minutes at room temperature. The signal of the assay plate was read with PheraStar (BMG LABTECH, NC), an HTRF compatible reader.

PTHR1 [3] = target: T1, PTHR1; experiment: β-arrestin1 recruitment BRET assay in transfected HEK293T cells; parameters: Flag (N); Life Technologies Corporation, CA (arrestin cDNA); host or cells: HEK293T (CRL-3216, ATCC); details: for −log10Slope: fitted curve slope; for −log10Slope / EC50: replicate plates; for β1-arrestin: relative to PTH [1-34], HEK293T cells, BRET
Protocol: as §1

[4] = cAMP assay, fitted dose-response curve, read-out: −log10EC50 (converted)
[5] = cAMP assay, fitted dose-response slope
[6] = β-arrestin1 recruitment, read-out: −log10EC50 (converted)
[7] = cAMP accumulation, fitted curve slope, replicate plates
[8] = cAMP accumulation, replicate plates, read-out: −log10EC50 (converted)
[9] = β-arrestin2 recruitment, read-out: −log10EC50 (converted)

Sequence | −log10Slope (PTHR1 [1]; β-arrestin2 recruitment) | Emax (PTHR1 [2]) | EC50 (PTHR1 [2]; [4]) | −log10Slope (PTHR1 [2]; [5]) | −log10Slope (PTHR1 [3]; β-arrestin1 recruitment) | EC50 (PTHR1 [3]; [6]) | −log10Slope (PTHR1 [2]; [7]) | EC50 (PTHR1 [2]; [8]) | β1-arrestin (PTHR1 [3]) | cAMP accumulation activity compared to control peptide (PTHR1 [2]) | cAMP (PTHR1 [2]) | EC50 (PTHR1 [1]; [9]) | β2-arrestin (PTHR1 [1]) | −log10Slope (PTHR1 [1]; β-arrestin2 recruitment, listed as R1-81) | −log10Slope (PTHR1 [3]; β-arrestin1 recruitment, listed as R1-81) | β-arrestin1 recruitment compared to PTH 1-34 (PTHR1 [3]; FIG. 1, PTH 1-34 positive control) | β-arrestin2 assay activity compared to control peptide (PTHR1 [1]) | EC50 (PTHR1 [1]; −log10EC50, β-arrestin2 recruitment) | EC50 (PTHR1 [2]) | EC50 (PTHR1 [3]; −log10EC50, β-arrestin1 recruitment)
AVAEIQLMHQRAKWELEFELFREFLKLLVDFF [Peptide R1-97] | −4.859 and −4.946 and −1.289 and −4.995 | 99.3% | 58.7 nM | −14.176 | −0.04462 and −1.336 and −0.04454 and −4.221 |  |  |  |  |  |  |  |  |  |  |  |  |  |  | 
AVAEIQLMHQRAKWELEYELFEMFLKLLEEIF [Peptide R1-100] | −5.84 and −1.653 and −5.805 | 99.9% | 52.8 nM | −12.0796 | −6.023 and −5.129 and −4.482 | 607 nM and 605 nM and 569 nM |  |  |  |  |  |  |  |  |  |  |  |  |  | 
AVAEIQLMHQRAKWELQEIGIAITLRLLARYI [Peptide R2-43] | −6.422 and −8.23 and −2.379 |  |  |  | −3.786 and −3.741 and −1.605 |  | 7.669 | 0.0348 nM |  | increased activity as compared to the control peptide | ++ |  |  |  |  |  |  |  |  | 
AVAEIQLMHQRAKWGLDLELAVKLQEILKDVL [Peptide R2-28] | −3.381 |  |  |  | −1.455 |  | −5.52 | 92.4 nM |  |  |  | 800 nM |  |  |  |  |  |  |  | 
AVAEIQLMHQRAKWGLEIELLKLLLSLLKEYI [Peptide R2-45] | −2.787 and −1.761 and −3.574 |  |  |  | −4.328 and −4.739 and −2.6191 | 483 nM and 470 nM and 542 nM | 4.438 | 0.00841 nM |  | increased activity as compared to the control peptide | ++ | 255 nM and 1750 nM and 337 nM |  |  |  |  |  |  |  | 
AVAEIQLMHQRAKWGVELQLKVDLRRILEDVY [Peptide R2-35] | −3.628 and −0.891 and −4.077 |  |  |  | −0.6156 and −2.473 and −2.432 |  | −9.142 | 9.84 nM |  | activity similar to the control peptide | + |  |  |  |  |  |  |  |  | 
AVAEIQLMHQRAKWIQDARRRAFLHKLIAEIH [LA-PM-FL, reference compound] |  |  |  |  |  | 1.75 nM and 2.65 nM and 3.53 nM | −5.23 | 13.1 nM | + |  |  | 3.64 nM and 3.04 nM and 3.08 nM | ++ | −3.14 and −3.448 and −2.307 | −3.271 and −2.571 and −2.99 |  | increased activity as compared to control |  |  | 
AVAEIQLMHQRAKWKLELELKAFLDQILKDVL [Peptide R2-36] | −4.1664 and −3.85 and −3.8162 |  |  |  | −5.884 and −3.429 and −1.931 | 1.47 nM and 4.7 nM and 2.91 nM | −1.696 | 4.76 nM | + | activity similar to the control peptide | + | 2.5 nM and 1.98 nM and 5.39 nM | ++ |  |  |  | increased activity as compared to control |  |  | 
AVAEIQLMHQRAKWKLELELKEKIRKLLEDLL [Peptide R2-29] | −2.874 and −3.055 |  |  |  | −5.782 and −7.833 |  | −16.1973 |  | + |  |  |  | ++ |  |  |  | increased activity as compared to control | 4.09 nM and 3.49 nM | 60.4 nM | 7.12 nM and 1.68 nM
AVAEIQLMHQRAKWRLEIELLKKLKEILKDVY [Peptide R2-34] | −3.972 and −3.591 and −3.249 |  |  |  | −3.251 and −3.221 and −4.25 | 2.75 nM and 6.54 nM and 3.31 nM | −11.9049 | 106 nM |  |  |  | 4.54 nM and 3.85 nM and 8.05 nM | + |  |  |  | activity similar to the control peptide |  |  | 
AVAEIQLMHQRAKWSLREELEKLLKELLKEYI [Peptide R2-44] | −0.789 and −3.6425 and −9.383 |  |  |  | −3.276 and −2.346 and −3.027 | 2.88 nM and 15 nM and 2.81 nM | 0.4711 | 0.0365 nM |  | increased activity as compared to the control peptide | ++ |  |  |  |  |  |  |  |  | 

Second part, led by results:

−log10Slope (PTHR1 [1]; β-arrestin2 recruitment) | Emax (PTHR1 [2]) | EC50 (PTHR1 [2]; [4]) | −log10Slope (PTHR1 [2]; [5]) | −log10Slope (PTHR1 [3]; β-arrestin1 recruitment) | EC50 (PTHR1 [3]; [6]) | −log10Slope (PTHR1 [2]; [7]) | EC50 (PTHR1 [2]; [8]) | β1-arrestin (PTHR1 [3]) | cAMP accumulation activity compared to control peptide (PTHR1 [2]) | cAMP (PTHR1 [2]) | EC50 (PTHR1 [1]; [9]) | β2-arrestin (PTHR1 [1]) | −log10Slope (PTHR1 [1]; β-arrestin2 recruitment, listed as R1-81) | −log10Slope (PTHR1 [3]; β-arrestin1 recruitment, listed as R1-81) | Sequence | β-arrestin1 recruitment compared to PTH 1-34 (PTHR1 [3]; FIG. 1, PTH 1-34 positive control) | β-arrestin2 assay activity compared to control peptide (PTHR1 [1]) | EC50 (PTHR1 [1]; −log10EC50, β-arrestin2 recruitment) | EC50 (PTHR1 [2]) | EC50 (PTHR1 [3]; −log10EC50, β-arrestin1 recruitment)
−4.789 |  |  |  | −5.307 | 0.0179 nM | −7.566 | 124 nM | ++ |  |  |  |  |  |  | AVAEIQLMHQRAKWELLEELLKILLELLKEYI [Peptide R2-38] | higher levels of recruitment of β-arrestin 1 |  |  |  | 
−3.98 and −2.409 |  |  |  | −2.895 and −4.559 | 9.96 nM and 2.96 nM | −0.697 |  |  |  |  | 6.58 nM and 7.64 nM | + |  |  | AVAEIQLMHQRAKWGLDLELRARLREILRDVY [Peptide R2-31] |  | activity similar to the control peptide |  |  | 
−2.019 and −6.257 |  |  |  | −2.291 and −7.462 | 27.1 nM and 12.9 nM | −14.6415 | 84.5 nM |  |  |  | 16.1 nM and 12.5 nM |  |  |  | AVAEIQLMHQRAKWGLELELKEKLRKILEDVY [Peptide R2-26] |  |  |  |  | 
−8.231 and −1.939 | 98.8% | 64 nM | −14.2687 | −3.1505 and −0.7628 | 1890 nM |  |  |  |  |  | 0.0212 nM | ++ |  |  | AVAEIQLMHQRAKWKILEELLKILIDLLKQYI [Peptide R2-48] |  | increased activity as compared to control |  |  | 
−1.829 and −3.204 |  |  |  | −7.323 and −7.877 | 12 nM and 9.45 nM | −4.343 | 12.2 nM |  | activity similar to the control peptide | + | 22.6 nM and 8.32 nM |  |  |  | AVAEIQLMHQRAKWKLDLELAVSLRKILEDVY [Peptide R2-27] |  |  |  |  | 
−3.2515 and −2.752 |  |  |  | −3.965 and −2.819 | 2.59 nM and 5.42 nM | −10.1961 | 12.9 nM |  | activity similar to the control peptide | + | 4.3 nM and 1.73 nM | ++ |  |  | AVAEIQLMHQRAKWKLELELKVKLLEILKDVY [Peptide R2-25] |  | increased activity as compared to control |  |  | 
−2.543 and −1.4524 |  |  |  | −4.267 and −2.2289 | 13.3 nM and 5.21 nM | −18.1852 | 80 nM |  |  |  | 12.1 nM and 5.02 nM | + |  |  | AVAEIQLMHQRAKWLEELKLKDDLRKILEDVY [Peptide R2-30] |  | activity similar to the control peptide |  |  | 
−5.331 and −2.162 and −8.426 |  |  |  | −2.007 and −4.048 and −4.079 | 5.83 nM and 10.3 nM and 3.98 nM | −17.9495 | 80.1 nM |  |  |  | 7.61 nM and 4.94 nM and 8.19 nM | + |  |  | AVAEIQLMHQRAKWLNELRLKEEMRKILEDVY [Peptide R2-33] |  | activity similar to the control peptide |  |  | 
−3.619 |  |  |  | −3.163 | 1.61 nM | −3.312 | 4870 nM | + |  |  |  |  |  |  | GIAVITLMDLRAYLRAEYELREMLLRLLEEIF [Peptide R2-13] |  |  |  |  | 

Reference: patent US12344649B2, “Modulators of parathyroid hormone receptor (PTHR1)” (Flagship Pioneering Innovations VI, LLC, priority 2019, dated 2025)
